Publication PMC9201508, “Mechanism of CK2 Inhibition by a Ruthenium-Based Polyoxometalate” (Frontiers in Molecular Biosciences, 2022)
“Also recorded” adds a separate entry of the source. Each block holds one compound with its values, some of them ahead of it.

Key:
[1] = target: T1, full-length CK2α (FL-CK2α) (Homo sapiens, UniProt P68400); test: Radioactive kinase assay, CK2-tide substrate, full-length CK2α; type: biochemical; settings: CK2-tide substrate 0.1 mM, 20 μM ATP, pH 7.5; mean ± SEM
T1 construct: made in house
Procedure: (§1) For IC50 (concentrations inducing 50% inhibition) analysis, recombinant tetrameric CK2 (α2β2), or C-terminal-deleted CK2α (CK2α^1–336), or full length CK2α (7.5 ng) were incubated with 0.1 mM synthetic peptide substrate RRRADDSDDDDD (CK2-tide), in a phosphorylation buffer containing 50 mM Tris-HCl pH 7.5, 10 mM MgCl2, 20 μM [γ-^33P]ATP (1,000–2,000 cpm/pmol), in a final volume of 20 μl, with increasing concentrations of the inhibitor. In the case of tetrameric CK2, 0.1 M NaCl was also present in the phosphorylation mixture. Controls were performed in the absence of any inhibitor, but with equal volume of vehicle (H2O). Reactions were performed at 30°C for 12 min and stopped by sample absorption on phospho-cellulose papers. Papers were washed three times with 75 mM phosphoric acid and counted in a scintillation counter (PerkinElmer). In the case of casein substrate (used at 0.05 mg/ml concentration), reactions were stopped by the addition of Laemmli loading buffer, samples were analyzed by 11% SDS-PAGE, and radioactive bands were detected and quantified by digital autoradiography (Cyclone plus storage phosphor system, PerkinElmer). IC50 calculation was obtained by analysis of the results with GraphPad Prism 7.0a software.

CK2 [2] = target: T2, CK2 (Homo sapiens, UniProt P68400); settings: number of kinases; ref Battistutta et al., 2011; cited from earlier work
T2 construct: made in house
T2 sequence (P68400 1-336): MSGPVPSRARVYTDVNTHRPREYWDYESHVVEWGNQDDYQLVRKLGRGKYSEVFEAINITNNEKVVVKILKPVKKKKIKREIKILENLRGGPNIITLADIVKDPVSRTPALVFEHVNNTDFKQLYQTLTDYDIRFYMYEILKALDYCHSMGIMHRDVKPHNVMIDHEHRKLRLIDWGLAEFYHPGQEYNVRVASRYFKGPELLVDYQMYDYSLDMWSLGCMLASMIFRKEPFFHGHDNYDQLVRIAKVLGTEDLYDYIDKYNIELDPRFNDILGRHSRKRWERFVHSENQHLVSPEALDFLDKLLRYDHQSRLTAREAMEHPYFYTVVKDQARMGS

[3] = target: T3, C-terminal-deleted CK2α (CK2α 1-336) (Homo sapiens, UniProt P68400); test: Radioactive kinase assay, CK2-tide substrate, C-terminal truncated CK2α; type: biochemical; settings: CK2-tide substrate 0.1 mM, 20 μM ATP, pH 7.5, mean ± SEM
T3 construct: Human CK2α (residues 1-336) was produced as previously reported; made in house; host or cells: E. coli BL21-DE3
T3 sequence (P68400 1-336): T2 sequence (P68400 1-336)
Procedure: (§2) Recombinant full-length CK2α and tetrameric CK2 (α2β2) [produced as in ([Venerando et al., 2013])] were kindly provided by Dr. Andrea Venerando (University of Parma, Italy). Human CK2α (residues 1-336) was produced as previously reported ([Papinutto et al., 2012]). Briefly, after expression in E. coli BL21-DE3, the protein was purified by two chromatographic steps, with heparin affinity chromatography (5 ml HiTrap Eparin HP column, GE Healthcare) and size-exclusion chromatography (HiLoad 16/60 Superdex 75 pg column, GE Healthcare). Protein eluted in 25 mM Tris, 500 mM NaCl, 1 mM DTT, pH = 8.5 was concentrated to 13.3 mg/ml, flash-frozen in liquid nitrogen and stored at −80°C.
For IC50 (concentrations inducing 50% inhibition) analysis, recombinant tetrameric CK2 (α2β2), or C-terminal-deleted CK2α (CK2α^1–336), or full length CK2α (7.5 ng) were incubated with 0.1 mM synthetic peptide substrate RRRADDSDDDDD (CK2-tide), in a phosphorylation buffer containing 50 mM Tris-HCl pH 7.5, 10 mM MgCl2, 20 μM [γ-^33P]ATP (1,000–2,000 cpm/pmol), in a final volume of 20 μl, with increasing concentrations of the inhibitor. In the case of tetrameric CK2, 0.1 M NaCl was also present in the phosphorylation mixture. Controls were performed in the absence of any inhibitor, but with equal volume of vehicle (H2O). […]

tetrameric CK2 (α2β2) = target: T4, tetrameric CK2 (α2β2) (Homo sapiens, UniProt P68400); test: Radioactive kinase assay, CK2-tide substrate, tetrameric holoenzyme; type: biochemical; settings: 0.1 M NaCl present, mean ± SEM
T4 construct: made in house
Procedure: as §1

CK2 [4] = target: T2, CK2; test: Radioactive kinase assay with casein as substrate; type: biochemical; settings: casein 0.05 mg/ml replaced CK2-tide
Procedure: as §1

CK2 [5] = target: T2, CK2; test: Kinetics analysis (Michaelis-Menten) with increasing CK2-tide or casein; type: biochemical
Procedure: as §1
For kinetics analysis, the assays were performed with increasing concentrations of CK2-tide or casein, in the phosphorylation buffer described above, but with 100 μM ATP concentration.

recombinant CK2α = test system: T5, recombinant CK2α; test: Radioactive phosphorylation assay at different pH and NaCl concentration; type: biochemical; settings: 5 nM Ru4POM
T5 construct: made in house
Procedure: as §1, with “[…],” for “in a phosphorylation buffer containing 50 mM Tris-HCl pH 7.5,”, “In the case of tetrameric CK2, 0.1 M NaCl was also present in the phosphorylation mixture.” left out

[6] = test system: endogenous CK2 in HEK-293T cells; test: Endo-cellular CK2 activity assay (Akt1 phospho-Ser129 Western blot); type: cell-based, human
Procedure: HEK-293T cells (human embryo kidney fibroblasts) were cultured in an atmosphere containing 5% CO2, maintained in DMEM medium (Sigma), supplemented with 10% (v/v) fetal bovine serum (FBS), 2 mM L-glutamine, 100 U/ml penicillin, and […] streptomycin. Cell treatments with Ru4POM were performed in the culture medium. When used, the cationic transfection reagents PEI (Thermo Scientific) or JetOpitmus (Polyplus-transfection) were mixed with Ru4POM and incubated for 1 h at room temperature, before adding the mix to the cells. After 24 h cells were lysed as previously described ([Zanin et al., 2012]). Protein concentration was determined by the Bradford method.
Endo-cellular CK2 activity was evaluated by assessing the phosphorylation state of the CK2 substrate Akt phospho-Ser129 (Abcam) ([Ruzzene et al., 2010]). For this purpose, equal amounts of proteins from treated cells were loaded on 11% SDS-PAGE, blotted on Immobilon-P membranes (Millipore), processed in Western blot (WB), and detected by chemiluminescence.
Quantitation of the signal was obtained by chemiluminescence detection on ImageQuant LAS 500 (GE Healthcare Life Sciences) and analysis with Carestream Molecular Imaging software (Carestream).

CK2α = target: T6, CK2α (Homo sapiens, UniProt P68400); test: Isothermal titration calorimetry; type: binding; settings: 25 mM Tris, 500 mM NaCl
T6 construct: Human CK2α (residues 1-336) was produced as previously reported; made in house; host or cells: E. coli BL21-DE3
T6 sequence (P68400 1-336): T2 sequence (P68400 1-336)
Procedure: as §2
Isothermal titration calorimetry (ITC) experiments were performed using a Malvern PEAQ-ITC microcalorimeter, at 25°C, with a 270 μl sample cell and a computer controlled microsyringe for titrant injections. CK2α (20–30 μM) and Ru4POM (200–400 μM) samples were in 25 mM Tris, 500 mM NaCl, pH = 8.5. After baseline stabilization, a further delay of 60 s was used before the first injection. In each individual titration, a starting Ru4POM injection of 0.4 μl in 0.8 s was followed by other 12 injections of 3 μl with a duration of 6 s each. A delay of 150 s was applied between each Ru4POM injection. Wiseman plot of integrated data was automatically obtained by software analysis (excluding the heat referred to the first 0.4 μl injection) and then it was fitted by theoretical binding curve using the one site model.

[7] = Stability monitored by UV-vis in buffered aqueous environment; type: physicochemical; settings: buffered/saline aqueous environments, up to pH 8.5, over 24 h
Procedure: Na10[Ru4(H2O)4(μ-O)4(μ-OH)2(γ-SiW10O36)2], Ru4POM, was prepared following a published procedure ([Galiano et al., 2021]). Ru4POM identity was confirmed by FTIR, while its stability was monitored by UV-vis, by using a Cary 100 instrument (Varian), in buffered aqueous environment (25 mM Tris, pH 8.5) over 24 h (Supplementary Figure S6).
Suppl. Fig. 6. UV-vis spectrophotometric monitoring of Ru4POM (5µM) stability in 25 mM Tris and
500 mM NaCl (pH=8.5) over time (up to 24 h). A quartz cuvette with path length 1 cm was used.
(1 picture or pasted object on this page, not shown here)

[8] = parameters: method as in Prudent et al., 2008; settings: ref Prudent et al., 2008; cited from earlier work

T1 sequence (P68400 whole entry): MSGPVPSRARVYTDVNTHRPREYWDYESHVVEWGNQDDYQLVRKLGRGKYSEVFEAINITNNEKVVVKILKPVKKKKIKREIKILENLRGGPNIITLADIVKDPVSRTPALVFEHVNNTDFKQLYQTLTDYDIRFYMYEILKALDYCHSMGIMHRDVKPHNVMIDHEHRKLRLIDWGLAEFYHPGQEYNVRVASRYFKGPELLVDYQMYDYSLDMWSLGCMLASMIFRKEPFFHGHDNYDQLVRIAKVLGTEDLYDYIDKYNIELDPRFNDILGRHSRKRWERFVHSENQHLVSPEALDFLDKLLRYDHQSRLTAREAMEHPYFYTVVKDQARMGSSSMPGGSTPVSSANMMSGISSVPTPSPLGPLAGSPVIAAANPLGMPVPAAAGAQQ
T4 sequence (P68400 whole entry): as above
T4 sequence (P67870 2-215 partner limits assumed): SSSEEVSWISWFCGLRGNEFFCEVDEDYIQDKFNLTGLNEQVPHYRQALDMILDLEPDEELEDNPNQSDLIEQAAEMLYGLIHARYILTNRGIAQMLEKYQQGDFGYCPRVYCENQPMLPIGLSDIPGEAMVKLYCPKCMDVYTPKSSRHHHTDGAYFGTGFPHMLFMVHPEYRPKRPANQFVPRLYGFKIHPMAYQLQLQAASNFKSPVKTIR

Compound: [γ-SiW10O36{(C5H7N2OS)(CH2)4CONH(CH2)3Si}2O]^4− [Na Biotin-SiW10]
- IC50 [1]: 16.4 ± 1.3 nM

- IC50 [1]: 8.5 ± 0.4 nM
Compound: (S,S)-(^ n Bu4N)4[γ-SiW10O36{(C16H9)SO2NH(CH2)3Si}2O] [TBA (L)Trp-SiW10]

- IC50 [1]: 18.2 ± 1.9 nM
Compound: [γ-SiW10O36{(C16H9)SO2NH(CH2)3Si}2O]^4− [Na (L)Trp-SiW10]

Compound: O=C(O)c1ccc2c(c1)nc(Nc1cccc(Cl)c1)c1ccncc12 [CX-4945, silmitasertib]
- other kinases inhibited with nanomolar activity (CK2 [2]): 12

- IC50 [1]: 3.63 ± 0.17 nM
- IC50 [3]: 3.63 ± 0.09 nM
- IC50 (tetrameric CK2 (α2β2)): 5.57 ± 0.68 nM
- IC50 (CK2 [4]): 18.5 ± 1.04 nM
- mode of inhibition towards substrates (CK2 [5]; CK2-tide peptide and casein): competitive inhibition
- CK2-TIDE Vmax (CK2 [5]; in presence of 5 nM Ru4POM, 100 μM ATP, ± SEM): 15019 ± 1635 cpm
- CASEIN Vmax (CK2 [5]; in presence of 18 nM Ru4POM, 100 μM ATP, ± SEM): 75417 ± 20117 a.u.
- cell permeability ([6]; inferred from lack of CK2 inhibition in treated cells): too small cell permeability
- stoichiometry (CK2α; pH 8.5): 1.04 ± 0.02
- ΔG (CK2α; pH 8.5): -7.763 ± 0.11 kcal/mol
- ΔH (CK2α; pH 8.5): -7.885 ± 0.339 kcal/mol
- −TΔS (CK2α; pH 8.5): 0.12 ± 0.581 kcal/mol
- Kd (CK2α; pH 8.5, 25°C, one site model, two experiments, read-out: apparent mean KD): 2090 ± 360 nM
Compound: Na10[Ru4(H2O)4(μ-O)4(μ-OH)2(γ-SiW10O36)2] [Ru4POM]
- inhibition of CK2 activity (recombinant CK2α; NaCl 0.2 M, CK2-tide): 29%
- inhibition of CK2 activity (recombinant CK2α; NaCl 0.5 M, CK2-tide): 22%
- inhibition of CK2 activity (recombinant CK2α; pH 7.5, without NaCl, CK2-tide): 75%
- inhibition of CK2 activity (recombinant CK2α; pH 8.5, CK2-tide): 66%
- CK2 inhibition in intact cells ([6]; HEK-293T cells treated with the free compound): do not detect any CK2 inhibition
- Akt1 phospho-Ser129 phosphorylation ([6]; HEK-293T, 10 μM Ru4POM, 24 h, combined with PEI or JetOptimus): reduced the phosphorylation of this site
- stability in aqueous environment [7]: stability was confirmed; also recorded: stable

Compound: (^ n Bu4N)3H[γ-SiW10O36{(C5H7N2OS)(CH2)4CONH(CH2)3Si}2O] [TBA Biotin-SiW10]
- IC50 [1]: 5.3 ± 0.6 nM

- IC50 [1]: 12.8 ± 1.7 nM
Compound: [γ-SiW10O36{(C16H9)SO2NH(CH2)3Si}2O]^4− [Na (D)Trp-SiW10]

- IC50 [1]: > 1000 nM
Compound: (NH4)12[Mo36(NO)4O108(H2O)16] [Mo36POM]

Compound: [P2Mo18O62]^6−
- chemical stability in an aqueous environment [8]: low chemical stability
